Measurements: patent US4505853A, “Enzyme-resistant immunomodulatory peptides” (Ortho Pharmaceutical Corporation, priority 1983, dated 1985)
Where a SMILES comes first, the peptide text is derived from it. Where no end group is shown, it is not given here. [ ]: non-standard residue; d: D form. The star is where a group is joined. Ac5c = NC1(C(=O)O)CCCC1; For = O=C*

Legend:
[1] = test system: Leucine Amino Peptidase (LAP); experiment: Leucine Amino Peptidase (LAP) Degradation, amino acid analysis; type: in vitro ADME; details: Asp, Pro, Val, Tyr, Arg all 0.00
From the text: Leucine Amino Peptidase (LAP) Degradation Asp, 0.00; Pro, 0.00; Val, 0.00; Tyr, 0.00; Arg.

[2] = test system: thymopoeitin receptor site (membrane glycoprotein of CEM cells); details: 2.3×10^-10 M of 125I-TP, 4 g of binding protein, incubation 12 h
[3] = molecular target: T1, porcine LAPcytosol (Leucine Aminopeptidase) (Sus scrofa, UniProt P28839); experiment: Stability of peptides against leucine aminopeptidase; type: in vitro ADME; details: 1 × 10^-3 M peptide and 3 units/ml porcine LAPcytosol in 50 mM Tris pH 8.5 buffer with 5 mM MgCl2 at 37°
T1 sequence (P28839 1-519): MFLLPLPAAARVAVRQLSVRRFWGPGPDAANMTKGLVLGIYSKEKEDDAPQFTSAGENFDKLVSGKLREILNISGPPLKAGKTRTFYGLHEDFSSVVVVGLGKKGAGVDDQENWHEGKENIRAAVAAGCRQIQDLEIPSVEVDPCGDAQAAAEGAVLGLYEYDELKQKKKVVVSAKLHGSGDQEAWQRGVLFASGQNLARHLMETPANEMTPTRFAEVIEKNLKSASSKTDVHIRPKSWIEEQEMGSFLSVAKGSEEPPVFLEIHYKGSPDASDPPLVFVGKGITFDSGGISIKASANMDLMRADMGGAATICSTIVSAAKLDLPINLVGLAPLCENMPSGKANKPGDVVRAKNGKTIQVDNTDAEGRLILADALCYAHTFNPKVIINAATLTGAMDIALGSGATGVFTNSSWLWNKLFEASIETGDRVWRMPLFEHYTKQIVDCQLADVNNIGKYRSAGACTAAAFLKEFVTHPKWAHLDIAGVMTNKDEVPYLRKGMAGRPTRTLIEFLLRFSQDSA
Experimental: (§1) It has been determined that the half-life of thymopentin (thymopoeitin fragment 32-36) in serum is approximately one minute.
*1 × 10^-3 M peptide and 3 units/ml porcine LAPcytosol in 50 mM
Tris pH 8.5 buffer with 5 mM MgCl2 at 37°

[4] = Stability of peptides against human serum; type: in vitro ADME; details: 1 μg/ml peptide in fresh human serum at 37°
Experimental: as §1
*1 μg/ml peptide in fresh human serum at 37°

[5] = molecular target: T2, bovine carboxypeptidase A (Bos taurus, UniProt P00730); experiment: Stability of peptides against carboxypeptidase A; type: in vitro ADME; details: 1 × 10^-3 M peptide and 0.05 units/ml bovine carboxypeptidase in pH 8.5 borate buffer at 37°
T2 sequence (P00730 111-419): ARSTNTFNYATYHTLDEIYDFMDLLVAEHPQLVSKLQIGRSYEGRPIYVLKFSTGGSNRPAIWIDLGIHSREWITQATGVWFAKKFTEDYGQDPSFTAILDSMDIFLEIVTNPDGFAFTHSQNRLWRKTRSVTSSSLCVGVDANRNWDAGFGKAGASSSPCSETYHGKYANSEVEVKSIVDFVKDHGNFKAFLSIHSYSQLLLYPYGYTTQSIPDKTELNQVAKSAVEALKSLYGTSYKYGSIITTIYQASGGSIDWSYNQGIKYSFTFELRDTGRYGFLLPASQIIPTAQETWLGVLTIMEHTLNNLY
Experimental: as §1
*1 × 10^-3 M peptide and 0.05 units/ml bovine carboxypeptidase
in pH 8.5 borate buffer at 37°

[6] = Enzymatic degradation / half-life in serum; type: in vitro ADME
From the text: as §1

Prothymocytes (Thy-1^-) = experiment: Induction assay, Thy-1+ T cells; type: cell-based; details: B6-lyb-2.1 congenic mouse spleen cells, 3 hrs with inducer; controls without inducer <5% induced cells
Experimental: (§2) The compounds of the invention were tested following the induction assay procedure set out in Scheid, et al., J. Exp. Med. 147: 1727-1743 (1978) and also following a receptor assay procedure designed to measure displacement of radiolabelled thymopoeitin from a receptor site by the test peptides. A positive result on the induction assay indicates the ability of the test peptide to mimic the ability of thymopoeitin or splenin to induce precursor cells to immunocompetent T cells or T cells and B cells, respectively. A positive result on the receptor assay indicates the ability of the test peptide to bind to the thymopoeitin receptor site and thus to mimic thymopoeitin activity. The subject peptides are positive in the induction assay, while those in which X is ASP or D-ASP are also positive in the receptor assay.
(§3) The peptides of the invention wherein X is ASP or D-ASP are characterized by their ability to induce the selective differentiation of Thy-1^+ T cells (but not Lyb-2^+ B cells). Thy-1 is a differentiation alloantigen present on T cells but not B cells, whereas Lyb-2 is a differentiation alloantigen present on B cells but not T cells. Studies of these peptides in the induction assay in vitro show them to have the same induction specificity as thymopoietin. […]

pro-Lyb-2 cells = experiment: Induction assay, Lyb-2+ B cells; type: cell-based; details: B6-lyb-2.1 congenic mouse spleen cells, 3 hrs with inducer; controls without inducer <5% induced cells
Experimental: as §2, §3

Question: With `CC(=O)N[C@@H](CCCNC(=N)N)C(=O)N1CCC[C@H]1C(=O)N[C@@H](CC(=O)O)C(=O)N[C@H](C(=O)N[C@H](Cc1ccc(O)cc1)C(=O)O)C(C)C` [IX, Nα-Acetyl-Arginyl-Prolyl-Aspartyl-Valyl-D-Tyrosine] (Ac-RPDV[dY]-OH) as the compound, how does the “amino acids liberated by Leucine Amino Peptidase (LAP)” value [1] read?
Answer: Its value is “no liberated amino acids were detected”.

Question: With `CNC(=O)[C@H](Cc1ccc(O)cc1)NC(=O)[C@@H](NC(=O)[C@H](CC(=O)O)NC(=O)[C@@H]1CCCN1C(=O)[C@H](CCCNC(=N)N)NC(C)=O)C(C)C` [N-α-acetyl-ARG-PRO-ASP-VAL-TYR-NHCH3, Nα-Acetyl-Arginyl-Prolyl-Aspartyl-Valyl-Tyrosine-N-Methylamide] (Ac-RPDVY-NHMe) as the compound, how does the “displacement of 125I-TP relative to that caused by thymopoietin self-displacement at equivalent concentrations” value [2] read?
Answer: The value was ≥ 50%.

Question: For `CC(C)[C@H](NC(=O)[C@H](CC(=O)O)NC(=O)[C@@H]1CCCN1C(=O)[C@H](CCCNC(=N)N)NC=O)C(=O)N[C@@H](Cc1ccc(O)cc1)C(=O)O` [N-α-formyl-ARG-PRO-ASP-VAL-TYR-OH, N^α -Formyl-Arginyl-Prolyl-Aspartyl-Valyl-Tyrosine] (For-RPDVY-OH), which “displacement of 125I-TP relative to that caused by thymopoietin self-displacement at equivalent concentrations” value [2] is on record?
Answer: The value was ≥ 50%.

Question: Which “Incubation time required for 50% degradation” value [3] does the source give for `CC(C)[C@H](NC(=O)[C@H](CC(=O)O)NC(=O)C1(NC(=O)[C@@H](N)CCCNC(=N)N)CCCC1)C(=O)N[C@@H](Cc1ccc(O)cc1)C(=O)O` [NH2 --Arg--Cle--Asp--Val--Tyr--OH, Arginyl-Cycloleucyl-Aspartyl-Valyl-Tyrosine] (H-R[Ac5c]DVY-OH) here?
Answer: The value was > 1400 min.

Question: With `C[C@H](N)C(=O)NCC(=O)N[C@H]1CSSC[C@@H](C(=O)O)NC(=O)[C@H](CO)NC(=O)[C@H]([C@@H](C)O)NC(=O)[C@H](Cc2ccccc2)NC(=O)[C@H]([C@@H](C)O)NC(=O)[C@H](CCCCN)NC(=O)[C@H](Cc2c[nH]c3ccccc23)NC(=O)[C@H](Cc2ccccc2)NC(=O)[C@H](Cc2ccccc2)NC(=O)[C@H](CC(N)=O)NC(=O)[C@H](CCCCN)NC1=O` [somatostatin, reference compound] as the compound, how does the “displacement of 125I-TP / receptor assay result, in words” value [2] read?
Answer: Its value is “no detectable displacement”.

Question: Which “displacement of 125I-TP / receptor assay result, in words” value [2] does the source give for “ACTH: adrenocorticotropic hormone (SYSMEHFRWGKPVGKKRRPVKVYPNGAEDESAEAFPLEF; Corticotropin; UniProt P01189 138-176, looked up) [reference compound]” here?
Answer: Its value is “no detectable displacement”.

Question: With “Ac-RPDAY [N-α-acetyl-ARG-PRO-ASP-ALA-TYR-OH, Nα-Acetyl-Arginyl-Prolyl-Aspartyl-Alanyl-Tyrosine]” as the compound, how does the “displacement of 125I-TP relative to that caused by thymopoietin self-displacement at equivalent concentrations” value [2] read?
Answer: The value was ≥ 50%.

Question: With “Ac-RPDEY [N-α-acetyl-ARG-PRO-ASP-GLU-TYR-OH, N^α -Acetyl-Arginyl-Prolyl-Aspartyl-Glutamyl-Tyrosine]” as the compound, how does the “displacement of 125I-TP relative to that caused by thymopoietin self-displacement at equivalent concentrations” value [2] read?
Answer: The value was ≥ 50%.

Question: For “Ac-RPDQY [N-α-acetyl-ARG-PRO-ASP-GLN-TYR-OH, Nα-acetyl-Arginyl-Prolyl-Aspartyl-Glutaminyl-Tyrosine]”, which “displacement of 125I-TP relative to that caused by thymopoietin self-displacement at equivalent concentrations” value [2] is on record?
Answer: The value was ≥ 50%.

Question: What does the source list for “Ac-RPDVY [N--Acetyl-Arg--Pro--Asp--Val--Tyr--OH, Nα-Acetyl-Arginyl-Prolyl-Aspartyl-Valyl-Tyrosine]”?
Answer: displacement of 125I-TP relative to that caused by thymopoietin self-displacement at equivalent concentrations [2]: ≥ 50%; Incubation time required for 50% degradation [4]: 38 min

Question: Which “displacement of 125I-TP relative to that caused by thymopoietin self-displacement at equivalent concentrations” value [2] does the source give for “Ac-RPDVY-NH2 [N--Acetyl-Arg--Pro--Asp--Val--Tyr--NH2, N^α -acetyl-Arginyl-Prolyl-Aspartyl-Valyl-Tyrosine amide]” here?
Answer: Its value is ≥ 50%.

Question: And the “Degradation in human serum, in words” value ([4]; at 30 minutes)?
Answer: Its value is “no degradation”.

Question: And the “Incubation time required for 50% degradation” value [5]?
Answer: Its value is > 1500 min.

Question: And the “Incubation time required for 50% degradation” value [3]?
Answer: Its value is > 1400 min.

Question: Which “displacement of 125I-TP / receptor assay result, in words” value [2] does the source give for “CRF: corticotropin-releasing factor (SEEPPISLDLTFHLLREVLEMARAEQLAQQAHSNRKLMEII; ends and bridges not checked; UniProt P06850 154-194, looked up) [reference compound]” here?
Answer: The value was “no detectable displacement”.

Question: For “RKDVY [NH2 --Arg--Lys--Asp--Val--Tyr--OH, reference compound]”, which half-life in serum ([6]; serum) is on record?
Answer: Its half-life in serum is “approximately one”.

Question: What about the “Incubation time required for 50% degradation” value [4] of the same compound?
Answer: Its value is 1.5 min.

Question: What about the “Incubation time required for 50% degradation” value [5] of the same compound?
Answer: The value was 18 min.

Question: What about the “Incubation time required for 50% degradation” value [3] of the same compound?
Answer: Its value is 15 min.

Question: With RKEVY [Splenopentin] as the compound, how does the “susceptibility to enzymatic degradation” value [6] read?
Answer: Its value is “highly susceptible to enzymatic degradation”.

Question: For “RPDVY [NH2 --Arg--Pro--Asp--Val--Tyr--OH]”, which “Incubation time required for 50% degradation” value [3] is on record?
Answer: Its value is 230 min.

Question: With “RPDVY-NH2 [NH2 --Arg--Pro--Asp--Val--Tyr--NH2, Arginyl-Prolyl-Aspartyl-Valyl-Tyrosinamide]” as the compound, how does the “displacement of 125I-TP relative to that caused by thymopoietin self-displacement at equivalent concentrations” value [2] read?
Answer: Its value is ≥ 50%.

Question: And the “Incubation time required for 50% degradation” value [4]?
Answer: Its value is > 20 min.

Question: What about the “Incubation time required for 50% degradation” value [5] of the same compound?
Answer: Its value is > 450 min.

Question: With YRKDV [NH2 -TYR-ARG-LYS-ASP-VAL-OH] as the compound, how does the “induction of Thy-1^+ cells (T cells)” value (Prothymocytes (Thy-1^-)) read?
Answer: The value was “no induction”.

Question: What about the “induction of Lyb-2.1^+ cells (B cells)” value (pro-Lyb-2 cells) of the same compound?
Answer: The value was “no induction”.

Question: With “growth hormone: comparison peptide in the receptor assay [reference compound]” as the compound, how does the “displacement of 125I-TP / receptor assay result, in words” value [2] read?
Answer: Its value is “no detectable displacement”.

Question: For ubiquitin [reference compound], which “displacement of 125I-TP / receptor assay result, in words” value [2] is on record?
Answer: The value was “no detectable displacement”.

Question: For “β-endorphin: comparison peptide in the receptor assay (YGGFMTSEKSQTPLVTLFKNAIIKNAYKKGE; Beta-endorphin; UniProt P01189 237-267, looked up) [reference compound]”, which “displacement of 125I-TP / receptor assay result, in words” value [2] is on record?
Answer: The value was “no detectable displacement”.
